Read-outs that look alike come from different tables or passages of the source.

Data set [1] relates to mice. Put plainly: β-Mercaptopropionic acid seizure. It counts as in vivo. The following applies: Mus musculus, po, 0.25 h, read-out: β-Mercaptopropionic acid seizure, ED50. The method, then: β-Mercaptopropionic acid seizure
β-Mercaptopropionic acid is an inhibitor of glutamatedecarboxylase (GAD), which is an enzyme which catalyses the conversion of glutamate to γ-aminobutyric acid (GABA). Its action thus manifests itself in a lowering of the GABA level and the occurrence of general tonico-clonic seizures 3 to 4 minutes after it has been administered. β-Mercaptopropionic acid was administered to mice intraperitoneally at a dose of 40 mg/kg.

Data set [2] deals with male OFl mice. Kind of data set: Pentetrazole seizure (mortality after i.p. pentetrazole 125 mg/kg). The class given is in vivo. The following applies: for ED50: Mus musculus, po, 0.25 h, read-out: Pentetrazole seizure, ED50; for Pentetrazole seizure, % protection: peroral, 15 minutes. The protocol: This test was carried out on batches of 10 male OFl mice which had fasted since the day before and were placed in individual cages, in accordance with the method of Cheymol (J.) Acta. Pharmacol., (1950), 2, 1-55.
The treatments were carried out perorally 15 minutes before intraperitoneal (i.p.) injection of a solution of pentetrazole (125 mg/kg).
The mortality is recorded 3 hours after this injection.
It is to be noted that the 50% effective doses (ED50), where these have been determined, were calculated by the method of MOOD (J. Am. Statist. Assoc., (1965), 60, 967-78).

Data set [3] concerns male Swiss mice. Kind of data set: Maximum electrical seizure. It counts as in vivo. The following applies: for ED50: Mus musculus, po, 0.25 h, read-out: Maximum electrical seizure, ED50; for Maximum electrical seizure, % protection: peroral, 15 minutes. The text has this: Maximum electrical seizure
The technique used is that recommended by GOODMAN (L. S.), SING-GREWALD (M.), BROWN (V. C.) and […] (E. A.), Am.
The animals tested are male Swiss mice grouped into batches of 10. The normal threshold of the electric shock which is capable of causing tonic extension of the front paws is first determined for each animal.

Data set [4] relates to mouse. Put plainly: Ouabain seizure. The class given is in vivo. The following applies: po, 0.25 h, read-out: Ouabain seizure, ED50. The method, then:
Ouabain was administered intra-ventricularly at a dose of 5 γ/mouse in a volume of 0.02 ml.

The nature of data set [5]: Acute toxicity, peroral. The following applies: mouse, in vivo, po. The protocol:
In order to locate the boundary separating the pharmacological effects from the toxicity of the products, a very approximate assessment of the toxicity was carried out on mice (batches of 10 animals) after peroral treatment.

For data set [6], the system named is mice. Put plainly: Anoxia as a result of confinement. The class given is in vivo. The following applies: Mus musculus, ip, read-out: Anoxia as a result of confinement, % increase in the survival time. The method, then: Anoxia as a result of confinement
Mice (in batches of 20) are placed in a 200 cm^3 hermetically sealed chamber (a wide-mouthed glass vessel) which is under normal pressure and has a normal content of atmospheric oxygen. All of the treatments are administered intraperitoneally immediately before introduction into the chamber. The animal is considered to be dead at the moment when breathing stops.
Since the wide-mouthed vessels chosen are very small, the motor activity of the animals is extremely low and this eliminates, in principle, the possibility of a positive result due to a sedative effect.
Therefore, the percentage increase in the survival time of the treated animals is noted, relative to the batch.

The subject of data set [7] is male mice. Kind of data set: Sedative activity: Rotarod test. The following applies: peroral, mice. The class given is in vivo. The protocol: This test is used for the purpose of assessing the ability of the animals to coordinate their movements. It uses a wooden cylinder which has a diameter of 4.8 cm and revolves at a speed of 4 revolutions/minute. The test is carried out on male mice weighing about 22 g. The products are administered perorally (p.o.) to batches of 10 animals per dose. The animals are placed on the apparatus 15 minutes after administration of the product. The percentage of mice which lose their equilibrium reflex, that is to say which become incapable of retaining their balance on the cylinder for a period of 2 minutes, is noted.
Using the regression straight line method, a 50% neurotoxic dose (NTD 50) is calculated, which thus expresses the average level of the first neuromuscular effects under the influence of the studied product.

The mark [8] stands for this setting: ouabain 5 γ/mouse intra-ventricularly, measured 15 minutes after peroral treatment.

For the molecule `C#CCC1(C(=O)[O-])CCCCC1.[Na+]`, the median effective dose (ED50) – broadly, the midpoint of the dose-response relation – worked out at 245 mg/kg in data set [1], 120 mg/kg in data set [2], 478 mg/kg in data set [3] and 507 mg/kg in data set [4] (Mus musculus). Further, in data set [5] (at 950 mg/kg, peroral, mice), the mortality (in general, the share of the test organisms that died) is 10%. In addition, the ILS at 280 mg/kg in data set [6] turned out to be 48%. For the same molecule, the “Rotarod test, % of failures” value in data set [7] (at 550 mg/kg) is recorded as 40%.

`C#CC1(C(=O)O)CCCCC1` [Example 17]: the “Pentetrazole seizure, % protection” value in data set [2] (at 170 mg/kg, mice) is recorded as 30%. Also, the “Maximum electrical seizure, % protection” value in data set [3] (at 170 mg/kg, mice) came out at 13%. For the same molecule, in data set [4] (setting [8]), the median effective dose (ED50) stood at 933 mg/kg. Moreover, the ILS at 210 mg/kg in data set [6] (at 210 mg/kg, intraperitoneal, mice) amounted to 23%. Further, the “Rotarod test, % of failures” value in data set [7] (at 500 mg/kg) stood at 0%.

Regarding `C=C(Cl)C1(C(=O)O)CCCCC1` [Example 18], in data set [2] (at 200 mg/kg, mice), the “Pentetrazole seizure, % protection” value is 40%. Moreover, the ED50 in data set [4] (setting [8]) amounted to 851 mg/kg. For the same molecule, the ILS at 260 mg/kg in data set [6] (at 260 mg/kg, intraperitoneal, mice) amounted to 40%. Further, the “Rotarod test, % of failures” value in data set [7] (at 600 mg/kg) worked out at 0%.

Consider `C=C(Cl)CC1(C(=O)O)CCCCC1` [Example 19], for which the median effective dose (ED50) in data set [1] (β-mercaptopropionic acid 40 mg/kg i.p., mice, 15 minutes after peroral treatment) turned out to be 300 mg/kg; in data set [2] (Table IV, mice, measured 15 minutes after peroral treatment) it was 94 mg/kg; in data set [3] (mice, measured 15 minutes after peroral treatment) it was 366 mg/kg; in data set [4] (setting [8]) it was 579 mg/kg. Besides, the mortality in data set [5] (1100 mg/kg) was 10%. In addition, in data set [6] (at 240 mg/kg, intraperitoneal, mice), the ILS at 240 mg/kg is 45%. Moreover, in data set [7] (at 700 mg/kg), the “Rotarod test, % of failures” value came out at 30%.

`C=CCC1(C(=O)[O-])CCCCC1.[Na+]` [Example 22, Sodium 1-allyl-1-cyclohexyl-carboxylate]: the 50% effective dose (ED50) in data set [2] came out at 154 mg/kg; in data set [4] (setting [8]) it was 638 mg/kg. Besides, the “Maximum electrical seizure, % protection” value in data set [3] (at 200 mg/kg, mice) is 80%. The ILS at 240 mg/kg in data set [6] worked out at 59%. For the same molecule, the “Rotarod test, % of failures” value in data set [7] (at 600 mg/kg) turned out to be 20%.

The values above are taken from patent US4283420A, “Pharmaceutically active cyclohexyl compounds and their preparation” (Labaz, priority 1978, dated 1981).
